Assay results published in patent US9249117B2, “Use of compounds from Antrodia camphorata in manufacturing medicaments for treating kidney diseases” (priority 2014, dated 2016).

Assays:
MCP-1 = experiment: Anti-inflammatory response: MCP-1 in supernatant by ELISA; format: cell-based, Mouse; details: for anti-inflammation (MCP-1) inhibition effect (in words): 0.012 μg/ml and 0.048 μg/ml; for inhibition at 0.012 µg/mL / inhibition at 0.048 µg/mL: Mus musculus, read-out: Inhibited MCP-1 level
Description: It is known that MCP1 plays an important role in interstitial inflammation, tubular atrophy, and kidney fibrosis. Therefore, by performing the protein test, the effects of Antrodia camphorata about anti-inflammation for the cells in kidney can be determined.
According to the manual, MCP-1 in the supernatant was detected by ELISA kits (Biosciences, Los Angeles, Calif., USA) and was determined by ELISA reader (Bio-Tek) (for wavelength absorbance of 450 nm). * * * indicated as p<0.005, NS indicated.

ROS in mesangial cells = experiment: Determination of reactive oxygen species (ROS) in LPS-treated mesangial cells; format: cell-based, Mouse; details: in 5 minutes; for effect for inhibiting ROS / anti-oxidative effect (in words): 0.012 μg/ml and 0.048 μg/ml; for inhibition at 0.012 µg/mL / inhibition at 0.048 µg/mL: Mus musculus, Mesangial cell, 5 min, read-out: Inhibiting ROS %
Description: Determination of ROS was by detecting the intensity of fluorescence from an oxide of 2′,7′-dichlorofluorescein diacetate (2′,7′-dichlorofluorescein diacetate). The mesangial cells was treated as compounds which are to be measured, and 2′,7′-dichlorofluorescein diacetate (2 μM) was added to react for 30 minutes. After reaction for 30 minutes, LPS was added at specific time. Then, the signals were determined by […] (Bio-Rad Laboratories, Inc) with exciting wavelength of 485 nm and emitting wavelength of 530 nm.
Because ROS was inseparably related to kidney diseases, the results for determination of ROS in the aforementioned cells were shown in FIG. 2A-2F.

[1] = tested on: mesangial cells (Mouse MC line CRL-1927); experiment: MTT cell viability assay using mesangial cells; details: all chosen concentrations (0.01~200 μg/ml), 48 hours, FIGS. 1A-1F
Description: Here, Mouse MC line CRL-1927 was used in order to proceed the subsequent experiments. The cell line was derived from American Type Culture Collection (Rockville, Md., USA), and then was operated regular culture with a culture medium consisted of Dulbecco's modified Eagle's medium and Ham's F-12 medium with 3:1 ratio, and adding 5% fetal bovine serum and 14 mM HEPES.
The aforementioned cell line was cultured in the culture medium for 24 hours. The cells after hyperplasia were washed once with PBS, and treated with 1 time trypsin-EDTA, and followed by centrifuging at 1,200 rpm for 5 minutes, and the cells sedimented to form the cell pellet and the supernatant was removed. Then, 10 ml fresh medium was added, and the cells were re-suspended by shaking slightly. The cells were placed in 96-well microplate. When they were tested, 0.01˜200 μg/ml compounds from Antrodia camphorata were added into each of the well. The cells were incubated at 37° C. with 5% CO2 for 48 hours. Subsequently, 5 mg/ml 3-(4,5-dimethylthiazol-2-yl)-2,5-diphenyltetrazolium bromide (MTT) were added into the each well to react in the dark environment for 2 hours. Furthermore, in order to calculate the survival rate of the cells, the absorbance at wavelength of 570 nm was determined by enzyme-linked immunosorbent assay, and then the needed concentration for the half growth inhibition ratio (IC50) was calculated. […]

Row | Compound | anti-inflammation (MCP-1) inhibition effect (in words) (MCP-1) | inhibition at 0.012 µg/mL (MCP-1; 0.012 μg/ml) | inhibition at 0.048 µg/mL (MCP-1; 0.048 μg/ml) | effect for inhibiting ROS / anti-oxidative effect (in words) (ROS in mesangial cells) | inhibition at 0.012 µg/mL (ROS in mesangial cells; 0.012 μg/ml) | inhibition at 0.048 µg/mL (ROS in mesangial cells; 0.048 μg/ml) | effect on mesangial cell growth (MTT cell viability) [1] | Inhibited MCP-1 level (MCP-1; 0.012 μg/ml) | Inhibited MCP-1 level (MCP-1; 0.048 μg/ml) | Inhibiting ROS % (ROS in mesangial cells; 0.012 μg/ml) | Inhibiting ROS % (ROS in mesangial cells; 0.048 μg/ml)
1 | COC1=C(OC)[C@H](O)[C@H](C/C=C(\C)CC/C=C(\C)C/C=C/C(C)(C)O)[C@@H](C)C1=O [Antrocamol LT3, (4R,5R,6R)-4-hydroxy-5-[(2E,6E,9E)-11-hydroxy-3,7,11-trimethyldodeca-2,6,9-trienyl]-2,3-dimethoxy-6-methylcyclohex-2-enone] | better effect for inhibiting MCP-1 level | 0% | 40.2% | did not have the inhibiting effect | 0% | 0% |  |  |  |  | 
2 | COC1=C(OC)[C@H](O)[C@H](C/C=C(\C)CC/C=C(\C)CCC=C(C)C)[C@@H](C)C1=O [Antroquinonol, reference compound] | did not have the effects of inhibition | 0% | 0% | did not have the inhibiting effect | 0% | 0% |  |  |  |  | 
3 | COC1=C(OC)C(O)C(CC=C(C)CCC=C(C)CC(O)C=C(C)C)C(C)C1=O (centres unmarked) [Antrocamol LT1, 4-hydroxy-5-[9-hydroxy-3,7,11-trimethyldodeca-2,6,10-trienyl]-2,3-dimethoxy-6-met hyl-cyclohex-2-enone] | did not have the effects of inhibition | 0% | 0% |  | 3% | 14% |  |  |  |  | 
4 | Antroquinonol B | did not have the effects of inhibition |  |  | exhibited anti-oxidation for nephritis cells |  |  | did not affect mesangial cells to grow | 0% | 0% | 0% | 12.5%
5 | COC1=C(OC)C(OC(C)=O)C(CC=C(C)CCC=C(C)CC(O)C=C(C)C)C(C)C1=O (centres unmarked) [Antrocamol LT2, 4-acetoxy-5-[9-hydroxy-3,7,11-trimethyldodeca-2,6,10-trienyl]-2,3-dimethoxy-6-met hyl-cyclohex-2-enone] | did not have the effects of inhibition | 0% | 0% |  | 0% | 0% |  |  |  |  | 
6 | 4-acetyl-Antroquinonol B |  |  |  | exhibited anti-oxidation for nephritis cells |  |  | did not affect mesangial cells to grow | 0% | 0% | 5% | 12%
